Measurements published in ChEMBL document CHEMBL5506018, “Discovery and Mechanistic Studies of Dual-Target Hits for Carbonic Anhydrase IX and VEGFR-2 as Potential Agents for Solid Tumors: X-ray, In Vitro, In Vivo, and In Silico Investigations of Coumarin-Based Thiazoles” (J Med Chem, 2024).

Experiments:
Carbonic anhydrase 1 [1] = molecular target: T1, Carbonic anhydrase 1 (Homo sapiens, UniProt P00915); experiment: Inhibition of human CA1 by stopped flow CO2 hydrase assay
[2] = molecular target: T2, Vascular endothelial growth factor receptor 2 (Homo sapiens, UniProt P35968); experiment: Inhibition of hypoxia induced VEGFR-2 (unknown origin)
T2 sequence (P35968 whole entry): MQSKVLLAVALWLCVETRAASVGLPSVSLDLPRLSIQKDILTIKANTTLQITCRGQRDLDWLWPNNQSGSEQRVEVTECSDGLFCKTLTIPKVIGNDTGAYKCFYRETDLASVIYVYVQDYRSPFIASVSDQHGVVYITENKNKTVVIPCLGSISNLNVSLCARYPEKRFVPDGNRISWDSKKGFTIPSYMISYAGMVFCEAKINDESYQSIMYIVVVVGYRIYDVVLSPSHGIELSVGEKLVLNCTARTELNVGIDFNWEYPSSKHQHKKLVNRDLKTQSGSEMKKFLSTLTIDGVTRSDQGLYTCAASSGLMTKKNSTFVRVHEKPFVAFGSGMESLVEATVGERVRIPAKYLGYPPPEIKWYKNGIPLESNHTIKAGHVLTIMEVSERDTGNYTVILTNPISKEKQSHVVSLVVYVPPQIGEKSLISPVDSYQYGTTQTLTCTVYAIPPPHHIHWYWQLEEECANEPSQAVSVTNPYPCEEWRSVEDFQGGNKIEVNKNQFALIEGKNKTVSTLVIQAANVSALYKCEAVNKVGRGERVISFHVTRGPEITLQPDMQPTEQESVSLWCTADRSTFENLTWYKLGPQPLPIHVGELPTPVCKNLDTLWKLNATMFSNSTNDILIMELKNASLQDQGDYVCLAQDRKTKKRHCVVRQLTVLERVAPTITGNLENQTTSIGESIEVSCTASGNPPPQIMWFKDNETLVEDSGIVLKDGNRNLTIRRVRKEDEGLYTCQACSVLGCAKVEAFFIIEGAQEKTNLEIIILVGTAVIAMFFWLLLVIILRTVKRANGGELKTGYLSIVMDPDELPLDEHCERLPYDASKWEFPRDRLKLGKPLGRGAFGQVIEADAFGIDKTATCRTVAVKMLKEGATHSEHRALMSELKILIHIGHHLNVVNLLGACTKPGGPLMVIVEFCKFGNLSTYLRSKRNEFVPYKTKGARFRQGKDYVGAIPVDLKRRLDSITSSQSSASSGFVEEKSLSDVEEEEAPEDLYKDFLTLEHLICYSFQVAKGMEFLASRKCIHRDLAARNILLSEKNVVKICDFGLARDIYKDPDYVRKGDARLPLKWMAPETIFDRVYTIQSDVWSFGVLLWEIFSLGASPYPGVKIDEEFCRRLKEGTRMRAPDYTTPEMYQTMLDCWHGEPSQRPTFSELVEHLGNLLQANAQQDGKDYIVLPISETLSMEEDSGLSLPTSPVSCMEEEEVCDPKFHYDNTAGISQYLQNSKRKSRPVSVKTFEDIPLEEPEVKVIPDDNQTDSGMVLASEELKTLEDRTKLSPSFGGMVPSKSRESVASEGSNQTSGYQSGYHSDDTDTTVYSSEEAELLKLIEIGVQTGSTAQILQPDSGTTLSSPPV

Carbonic anhydrase 1 [3] = molecular target: T1, Carbonic anhydrase 1
Description: Inhibition of human CA1 preincubated for 6 hrs by phenol red staining based stopped flow CO2 hydrase assay

[4] = molecular target: T2, Vascular endothelial growth factor receptor 2; experiment: Inhibition of VEGFR-2 (unknown origin)
Ehrlich [5] = details: dose 5 mg/kg; route ip; time 14 day
Description: Antitumor activity against mouse EAC cells implanted in Swiss albino mouse assessed as T/C ratio at 5 mg/kg, ip measured on day 5, 10 and 14

PANC-1 = experiment: Cytotoxicity against human PANC-1 cells under hypoxia condition by MTT assay; assay type: functional, cell-based
Ehrlich [6] = experiment: animal or person; details: Mus musculus, 336 h, read-out: GI
[7] = Cytotoxicity against African green monkey Vero cells under hypoxic condition by MTT assay; details: African green monkey (Chlorocebus sabaeus)

T1 sequence (P00915 whole entry): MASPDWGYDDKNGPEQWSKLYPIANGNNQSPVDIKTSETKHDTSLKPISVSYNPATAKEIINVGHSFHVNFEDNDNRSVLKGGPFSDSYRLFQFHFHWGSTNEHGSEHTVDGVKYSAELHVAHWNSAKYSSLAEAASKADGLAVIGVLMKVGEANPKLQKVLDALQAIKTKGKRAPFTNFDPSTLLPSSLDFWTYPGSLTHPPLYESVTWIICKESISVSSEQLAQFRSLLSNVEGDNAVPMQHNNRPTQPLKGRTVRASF

| Structure (SMILES) | Ki (Carbonic anhydrase 1 [3]) [µM] | other results |
| --- | --- | --- |
| Cc1nc(-c2cc3ccccc3oc2=O)ccc1C(=O)/C=C/c1cccs1 |  | Ki (Carbonic anhydrase 1 [1]): 1.1 µM |
| CCOc1cccc2cc(/C(C)=N/Nc3nc(-c4cc5cccc(OCC)c5oc4=O)cs3)c(=O)oc12 | > 100 |  |
| CCOc1cccc2cc(/C(C)=N/Nc3nc(-c4ccccc4)cs3)c(=O)oc12 | > 100 | IC50 [2]: 0.0686 µM |
| CCOc1cccc2cc(/C(C)=N/Nc3nc(-c4cc5cc(Br)ccc5oc4=O)cs3)c(=O)oc12 | > 100 |  |
| C/C(=N\NC(=S)Nc1ccc(Br)cc1)c1cc2ccccc2oc1=O |  | IC50 [4]: 0.082 µM |
| CCOc1cccc2cc(/C(C)=N/Nc3nc(-c4cc5ccc(OC)cc5oc4=O)cs3)c(=O)oc12 | > 100 |  |
| O=C(CN1C(=O)S/C(=C\c2cccs2)C1=O)c1cc2ccccc2oc1=O | > 100 |  |
| COc1cccc2c1C(=O)c1c(O)c3c(c(O)c1C2=O)C[C@@](O)(C(=O)CO)C[C@@H]3O[C@H]1C[C@H](N)[C@H](O)[C@H](C)O1 [DOXORUBICIN] |  | T/C (Ehrlich [5]): 40.89; IC50 (PANC-1): 6.9 µM; inhibition in vivo at 5 mg/kg (Ehrlich [6]): 67%; IC50 [7]: 8.7 µM |

Further lines, with some results ahead:

| Ki (Carbonic anhydrase 1 [3]) [µM] | Structure (SMILES) | other results |
| --- | --- | --- |
| > 100 | CCOc1cccc2cc(/C(C)=N/Nc3nc(-c4ccc(OC)cc4)cs3)c(=O)oc12 | IC50 [2]: 0.0348 µM |
| > 100 | CCOc1cccc2cc(/C(C)=N/Nc3nc(-c4ccc(Cl)cc4)cs3)c(=O)oc12 |  |
| > 100 | CCOc1cccc2cc(/C(C)=N/Nc3nc(-c4ccc(C)cc4)cs3)c(=O)oc12 |  |
| > 100 | CCOc1cccc2cc(/C(C)=N/Nc3nc(-c4ccc([N+](=O)[O-])cc4)cs3)c(=O)oc12 |  |
| > 100 | CCOc1cccc2cc(/C(C)=N/Nc3nc(-c4ccc(Br)cc4)cs3)c(=O)oc12 |  |
| > 100 | CCOc1cccc2cc(/C(C)=N/Nc3nc(-c4ccc(F)cc4)cs3)c(=O)oc12 | IC50 [2]: 0.0321 µM |
